Source: patent publication US8017828B2, “Utilization of rare sugars in plant or microorganism” (Shikoku Research Institute Incorporated, priority 2004, dated 2011)
Where two headings read alike, the source gives them in different places.

Tests used:
[1] = test system: cherry tomato plant “mini carol”; experiment: Growth of cherry tomato seedlings with D-allose in nutrient solution; format: in vivo; design: key to Number of opening flowers: z: Bud formation could not be confirmed; settings: for Fresh leaf weight / Fresh stem weight / Number of leaves / Number of opening flowers / Stem diameter / Stem length: 4 weeks
Protocol: On Jul. 13, 2004, seeds of a cherry tomato plant “mini carol” (Sakata Seed Co., Ltd.) were sown one by one in the respective holes using 30 holes among the 253 holes of a rockwool (280 mm (width)×580 mm (length)), which was placed in a plastic container with a capacity of 8 L. In this plastic container, 1 L of each nutrient solution in which a fertilizer (Otsuka No. 1 (1.5 g/L) and Otsuka No. 2 (1.0 g/L)) was dissolved was poured, then, the cultivation was carried out in a glass chamber without heating. With regard to a treated plot, 7 treated plots in which a treatment liquid obtained by adding D-allose at 0 to 5 mM to the fertilizer nutrient solution was poured in the plastic container from July 20 when the seeds germinated completely were prepared. Incidentally, the treatment liquid was added in the same amount to the respective treated plots according to need. A survey was carried out with regard to the growth at 4 weeks after the initiation of the treatment.

[2] = test system: Vitis vinifera L.; format: in vivo
Protocol: Matured branches of “V. vinifera L.” grown outdoors were collected on December 25 during the dormant stage and were prepared to have one bud, and then, each cutting base was immersed in a 0.01, 0.1 or 1% aqueous solution of D-psicose for 24 hours. On the following day December 26, the same procedure as in 1 was carried out. In a control plot, distilled water was used, and to the liquid for treatment, Approach BI was not added. The judgment of bud flush was carried out in accordance with the method in 1. The measurement of bud flush was carried out on about a weekly basis.
In the survey of the bud flush rate, 9 cuttings were used for each plot and the procedure was repeated twice and an average was obtained.

[3] = test system: cherry tomato plant “mini carol”; experiment: Hydroponic growth of cherry tomato with D-psicose 0.001-0.03%; format: in vivo; settings: for number of flower clusters compared with the control plot: control plot 2.0
Protocol: On Jun. 10, 2003, a cherry tomato plant “mini carol” was transplanted for permanent planting to a hydroponic apparatus, and from 7 days after the permanent planting, 4 treated plots (0%, 0.001%, 0.01% and 0.03%) were prepared by adding D-psicose to a nutrient culture solution. A survey was carried out with regard to the growth at […] after the treatment (July 22). […] The fresh weight was larger in the plot of 0.001%, and was smaller in the plot of 0.03% compared with the control plot. When the fresh weight was seen according to the parts, roots and leaves were larger in the plot of 0.001%.

[4] = test system: Fusarium oxysporum IFO 9967 strain; experiment: Infection of treated tomato seeds on agar with Fusarium oxysporum; format: in vivo, tomato plant (variety: “House Momotaro”)
Protocol: (§1) Therefore, by using a tomato plant and a strain of Fusarium oxysporum, which is a typical pathogenic bacterium of tomato, an effect of D-psicose during infection was examined.
(§2) To be more specific, seeds of a tomato plant (variety: “House Momotaro”) were subjected to an immersion treatment by immersing them in a D-psicose solution at a concentration of from 0.01% (w/v) to 0.1% (w/v) for 15 minutes while stirring slowly, followed by air-drying on sterile gauze, and then used as treated seeds. At the center of a plastic dish with a diameter of 9 cm filled with 25 ml of 1% (w/v) agar, a mycelial disc (diameter: 1 cm) obtained by pushing out Fusarium oxysporum (IFO 9967 strain and IFO 31213 strain) cultured for 1 week on a potato dextrose agar medium using a cork borer along with the agar medium was placed, and 10 seeds of the above treated seeds were placed equally spaced around the disc. At this time, test plots in which D-psicose was added to the agar medium at a concentration of from 0.01% (w/v) to 0.1% (w/v) were prepared. Then, the dishes were placed at 23° C. under the dark condition for 7 days to 10 days, and observation was carried out with regard to the elongation of shoot, the elongation of root, the shoot development rate, the infection state in root and the like.

[5] = test system: Fusarium oxysporum IFO 31213 strain; experiment: as above; format: in vivo, tomato plant (variety: “House Momotaro”)
Protocol: as §1, §2

[6] = D-psicose seed 0.01%, medium 0.01%
[7] = D-psicose seed 0.01%, medium non
[8] = D-psicose seed 0.05%, medium 0.05%
[9] = D-psicose seed 0.05%, medium non
[10] = D-psicose seed 0.10%, medium 0.10%
[11] = D-psicose seed 0.10%, medium non
[12] = seeds treated, and seeds treated plus agar medium

O=C[C@H](O)[C@H](O)[C@H](O)[C@H](O)CO [D-allose]
flowering ([1]; 0.01 mM): promoting flowering | promotion of growth in the stem length in comparison with the untreated plot ([1]; 0.01 mM): 33% | promotion of growth in the stem weight in comparison with the untreated plot ([1]; 0.01 mM): 67% | growth ([1]; 5 mM): some growth inhibition | Fresh leaf weight ([1]; D-allose 0.01 mM): 10.9 g | Fresh stem weight ([1]; D-allose 0.01 mM): 16.4 g | Number of leaves ([1]; D-allose 0.01 mM): 9.3 | Number of opening flowers ([1]; D-allose 0.01 mM): 0.6 | Stem diameter ([1]; D-allose 0.01 mM): 5.3 mm | Stem length ([1]; D-allose 0.01 mM): 69.1 cm | Fresh leaf weight ([1]; D-allose 0.05 mM): 6.9 g | Fresh stem weight ([1]; D-allose 0.05 mM): 11.7 g | Number of leaves ([1]; D-allose 0.05 mM): 8.9 | Number of opening flowers ([1]; D-allose 0.05 mM): 0.4 | Stem diameter ([1]; D-allose 0.05 mM): 4.3 mm | Stem length ([1]; D-allose 0.05 mM): 60.9 cm | Fresh leaf weight ([1]; D-allose 0.1 mM): 8.6 g | Fresh stem weight ([1]; D-allose 0.1 mM): 11.1 g | Number of leaves ([1]; D-allose 0.1 mM): 9.0 | Number of opening flowers ([1]; D-allose 0.1 mM): 0.0 | Stem diameter ([1]; D-allose 0.1 mM): 4.3 mm | Stem length ([1]; D-allose 0.1 mM): 56.7 cm | Fresh leaf weight ([1]; D-allose 0.5 mM): 8.3 g | Fresh stem weight ([1]; D-allose 0.5 mM): 11.2 g | Number of leaves ([1]; D-allose 0.5 mM): 8.3 | Number of opening flowers ([1]; D-allose 0.5 mM): 0.0 | Stem diameter ([1]; D-allose 0.5 mM): 4.5 mm | Stem length ([1]; D-allose 0.5 mM): 57.0 cm | Fresh leaf weight ([1]; D-allose 1.0 mM): 9.7 g | Fresh stem weight ([1]; D-allose 1.0 mM): 13.7 g | Number of leaves ([1]; D-allose 1.0 mM): 9.6 | Number of opening flowers ([1]; D-allose 1.0 mM): 0.0 | Stem diameter ([1]; D-allose 1.0 mM): 4.8 mm | Stem length ([1]; D-allose 1.0 mM): 59.0 cm | Fresh leaf weight ([1]; D-allose 5.0 mM): 4.8 g | Fresh stem weight ([1]; D-allose 5.0 mM): 6.7 g | Number of leaves ([1]; D-allose 5.0 mM): 7.0 | Number of opening flowers ([1]; D-allose 5.0 mM): z | Stem diameter ([1]; D-allose 5.0 mM): 4.2 mm | Stem length ([1]; D-allose 5.0 mM): 40.4 cm

O=C(CO)[C@H](O)[C@H](O)[C@H](O)CO [D-psicose]
bud flush rate ([2]; 0.01%): a similar pattern to that of the control plot | bud flush rate ([2]; 0.1%, throughout the whole period): the lowest value | bud flush rate ([2]; 1%, after the mid-February): the highest value | bud flush rate compared with control plot ([2]; all plots (0.01, 0.1, 1%), until early February): lower | state of green branches of grapes in summer after treatment ([2]; in vivo): withered and dead | fresh weight compared with the control plot ([3]; 0.001%): larger | maximum root length compared with the control plot ([3]; 0.001%): slightly longer | number of leaves compared with the control plot ([3]; 0.001%): slightly larger | stem length compared with the control plot ([3]; 0.001% in nutrient culture solution): slightly longer | number of flower clusters compared with the control plot ([3]; 0.001%): slightly larger | maximum root length compared with the control plot ([3]; 0.01%): slightly shorter | stem diameter compared with the control plot ([3]; 0.01%): slightly larger | stem length compared with the control plot ([3]; 0.01%): slightly longer | fresh weight compared with the control plot ([3]; 0.03%): smaller | maximum root length compared with the control plot ([3]; 0.03%): slightly shorter | number of leaves compared with the control plot ([3]; 0.03%): slightly smaller | stem diameter compared with the control plot ([3]; 0.03%): slightly smaller | stem length compared with the control plot ([3]; 0.03%): slightly shorter | number of flower clusters compared with the control plot ([3]; 0.03%): slightly smaller | Root length [4, 6]: 4.5 cm | Shoot length [4, 6]: 5.2 cm | Root length [4, 7]: 4.1 cm | Shoot length [4, 7]: 5.1 cm | Root length [4, 8]: 3.7 cm | Shoot length [4, 8]: 5.7 cm | Root length [4, 9]: 3.3 cm | Shoot length [4, 9]: 3.4 cm | Root length [4, 10]: 2.0 cm | Shoot length [4, 10]: 3.8 cm | Root length [4, 11]: 3.7 cm | Shoot length [4, 11]: 4.3 cm | browning caused by infection of roots with Fusarium oxysporum [4, 12]: reduction | shoot development rate [4, 12]: improvement | mycelial elongation of Fusarium oxysporum ([5]; D-psicose added to the agar medium): inhibited | Root length [5, 6]: 4.7 cm | Shoot length [5, 6]: 4.5 cm | Root length [5, 7]: 3.9 cm | Shoot length [5, 7]: 4.7 cm | Root length [5, 8]: 3.5 cm | Shoot length [5, 8]: 4.5 cm | Root length [5, 9]: 3.8 cm | Shoot length [5, 9]: 4.2 cm | Root length [5, 10]: 2.1 cm | Shoot length [5, 10]: 2.9 cm | Root length [5, 11]: 3.2 cm | Shoot length [5, 11]: 3.0 cm | browning caused by infection of roots with Fusarium oxysporum [5, 12]: reduction | shoot development rate [5, 12]: improvement
